PubChem BioAssay AID1963967 (Molecular Pharmacology Branch, DTP, NCI, 2024)

Test system: 855422-203-R-J1-PDC spheroids with HUVEC/MSC, viability
Experiment: Anticancer human tumor 855422-203-R-J1-PDC patient-derived bladder carcinoma cell line growth inhibition [PI3K]
Conditions: for IC50: curve of first compound; for viability, T/C: stronger effect = lower value
Source text: Combinatorial screen of targeted agents with the PI3K inhibitors inavolisib, alpelisib, duvelisib, and copanlisib in multi-cell type tumor spheroids
A high-throughput screen of multi-cell type tumor spheroids was designed to identify active combinations of targeted small molecules and PI3K pathway inhibitors. Complex spheroids include a stromal component modeled by human endothelial cells (HUVEC) and fibroblasts modeled by human mesenchymal stem cells (MSCs). The concentration ranges selected for each drug and investigational agent were based upon clinically achievable concentrations if the clinical Cmax of the agent was known.
Compounds. The drugs and investigational agents: inavolisib (NSC800729), alpelisib (NSC765974), duvelisib (NSC772469), copanlisib (NSC816437), ipatasertib (NSC767898), afuresertib (NSC778305), talazoparib (NSC767125), sapanisertib (NSC764658), selumetinib (NSC741078), tovorafenib (DAY101, NSC766906), vemurafenib (NSC761431), ravoxertinib (NSC781343), sotorasib (NSC818433), MRTX1133 (NSC 836407), abemaciclib (NSC 768073), palbociclib (NSC758247), venetoclax (NSC 766270), SY5609 (NSC837396), enzalutamide (NSC755605), and darolutamide (NSC825331), were obtained from the National Cancer Institute (NCI) Developmental Therapeutics Program Chemical Repository. The FDA-approved anticancer drug set is available from the NCI Developmental Therapeutics Program. […] The stock solutions were prepared in dimethyl sulfoxide (DMSO, Sigma-Aldrich, St. Louis, MO, cat. D2650) at 800-fold the tested concentration and stored at -70 degrees C prior to their use. All drugs and investigational agents were tested over a range starting from a high concentration at or near the clinical Cmax and decreasing in half-log increments. If the clinical Cmax for an agent had not been determined, the highest concentration tested was 10 microM.
Cell Culture. All cells were maintained in an incubator at 37 degrees C and 5% CO2 with 95% humidity. The PDC lines were cultured according to standard operating procedures established by the NCI PDMR (https://pdmr.cancer.gov/sops/default.htm). All PDCs were thawed and cultured in Matrigel-coated flasks prepared with a working solution of 1X Ham's F-12 nutrient mix, without supplementation (Invitrogen, Waltham, MA, cat. 11765054), 100 U/mL penicillin-streptomycin (Invitrogen, cat. 15140122), and 2.5% Matrigel (Corning Inc., Corning, NY, cat. 354248) for the first three passages. The 354836-022-R-J1-PDC, 475296-252-R-J1-PDC, and 997726-040-R-J2-PDC lines were cultured in 6A media, which includes advanced DMEM/F-12 (Thermo Fisher Scientific, cat. 12634028), 10 mM HEPES (Thermo Fisher Scientific, cat. 15630080), 1X GlutaMAX supplement (Thermo Fisher Scientific, cat. 35050061), 0.1 mg/mL primocin (InvivoGen, San Diego, CA, cat. ant-pm-2), 10% defined fetal bovine serum, heat inactivated (HyClone Laboratories Inc., Logan, UT, cat. SH30070.03HI), 50% L-WRN conditioned media (ATCC, cat. CRL-3276), 1.25 mM N-Acetyl-L-cysteine (Sigma-Aldrich, cat. A9165), 10 mM nicotinamide (Sigma-Aldrich, cat. N0636), 1X B-27 supplement (Thermo Fisher Scientific, cat. 17504044), 1X N-2 supplement (Thermo Fisher Scientific, cat. 17502048), and 10 microM Y-27632 dihydrochloride (Tocris Bioscience, Bristol, United Kingdom, cat. 1254). The 624824-186-R-J2-PDC line was cultured in 6C/Colon 1B media, which includes all 6A media components plus 50 ng/mL human EGF recombinant protein (Thermo Fisher Scientific, cat. PHG0311). […]

[1] = second compound 0.0316 µM, first compound 0.00316 µM
[2] = second compound 0.0316 µM, first compound 0.01 µM
[3] = second compound 0.0316 µM, first compound 0.0316 µM
[4] = second compound 0.0316 µM, first compound 0.1 µM
[5] = second compound 0.1 µM, first compound 0.00316 µM
[6] = second compound 0.1 µM, first compound 0.01 µM
[7] = second compound 0.1 µM, first compound 0.0316 µM
[8] = second compound 0.1 µM, first compound 0.1 µM
[9] = second compound 0.316 µM, first compound 0.00316 µM
[10] = second compound 0.316 µM, first compound 0.01 µM
[11] = second compound 0.316 µM, first compound 0.0316 µM
[12] = second compound 0.316 µM, first compound 0.1 µM
[13] = second compound 1 µM, first compound 0.00316 µM
[14] = second compound 1 µM, first compound 0.01 µM
[15] = second compound 1 µM, first compound 0.0316 µM
[16] = second compound 1 µM, first compound 0.1 µM
[17] = second compound 3.16 µM, first compound 0.00316 µM
[18] = second compound 3.16 µM, first compound 0.01 µM
[19] = second compound 3.16 µM, first compound 0.0316 µM
[20] = second compound 3.16 µM, first compound 0.1 µM
[21] = second compound 10 µM, first compound 0.00316 µM
[22] = second compound 10 µM, first compound 0.01 µM
[23] = second compound 10 µM, first compound 0.0316 µM
[24] = second compound 10 µM, first compound 0.1 µM
[25] = second compound 0.0316 µM, first compound 0.000316 µM
[26] = second compound 0.0316 µM, first compound 0.001 µM
[27] = second compound 0.1 µM, first compound 0.000316 µM
[28] = second compound 0.1 µM, first compound 0.001 µM
[29] = second compound 0.316 µM, first compound 0.000316 µM
[30] = second compound 0.316 µM, first compound 0.001 µM
[31] = second compound 1 µM, first compound 0.000316 µM
[32] = second compound 1 µM, first compound 0.001 µM
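Note: agents incubated with spheroids for one week before read-out.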
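Throughout, for viability, T/C: 100% = DMSO vehicle-treated control wells.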

CCN1CCN(Cc2ccc(Nc3ncc(F)c(-c4cc(F)c5nc(C)n(C(C)C)c5c4)n3)nc2)CC1 + Cc1nc(NC(=O)N2CCCC2C(N)=O)sc1-c1ccnc(C(C)(C)C(F)(F)F)c1
IC50 (second compound 0.0316 µM): 0.558 µM | IC50 (second compound 0.1 µM): 0.816 µM | IC50 (second compound 0.316 µM): 0.141 µM | IC50 (second compound 1 µM): 0.012 µM | IC50 (second compound 3.16 µM): < 0.00316 µM | IC50 (second compound 10 µM): < 0.00316 µM | viability, T/C [1]: 102% | viability, T/C [2]: 80.5% | viability, T/C [3]: 97.1% | viability, T/C [4]: 70.4% | viability, T/C (second compound 0.0316 µM, first compound 0.316 µM): 60.1% | viability, T/C (second compound 0.0316 µM, first compound 1 µM): 40.6% | viability, T/C [5]: 99.9% | viability, T/C [6]: 90.3% | viability, T/C [7]: 86% | viability, T/C [8]: 67.7% | viability, T/C (second compound 0.1 µM, first compound 0.316 µM): 60.6% | viability, T/C (second compound 0.1 µM, first compound 1 µM): 47.7% | viability, T/C [9]: 80.3% | viability, T/C [10]: 79.7% | viability, T/C [11]: 65.1% | viability, T/C [12]: 54.9% | viability, T/C (second compound 0.316 µM, first compound 0.316 µM): 40.4% | viability, T/C (second compound 0.316 µM, first compound 1 µM): 28.2% | viability, T/C [13]: 57.2% | viability, T/C [14]: 56.2% | viability, T/C [15]: 35.2% | viability, T/C [16]: 34.7% | viability, T/C (second compound 1 µM, first compound 0.316 µM): 22% | viability, T/C (second compound 1 µM, first compound 1 µM): 20.2% | viability, T/C [17]: 37.1% | viability, T/C [18]: 36.4% | viability, T/C [19]: 20.3% | viability, T/C [20]: 18.8% | viability, T/C (second compound 3.16 µM, first compound 0.316 µM): 15.4% | viability, T/C (second compound 3.16 µM, first compound 1 µM): 16.1% | viability, T/C [21]: 18.5% | viability, T/C [22]: 12.4% | viability, T/C [23]: 13.6% | viability, T/C [24]: 12.1% | viability, T/C (second compound 10 µM, first compound 0.316 µM): 9.73% | viability, T/C (second compound 10 µM, first compound 1 µM): 11.2%

CC(=O)c1c(C)c2cnc(Nc3ccc(N4CCNCC4)cn3)nc2n(C2CCCC2)c1=O + CC(Nc1ccc2c(c1)OCCn1cc(N3C(=O)OCC3C(F)F)nc1-2)C(N)=O
IC50 (second compound 0.00316 µM): > 0.1 µM | IC50 (second compound 0.01 µM): > 0.1 µM | IC50 (second compound 0.0316 µM): > 0.1 µM | IC50 (second compound 0.1 µM): 0.0755 µM | IC50 (second compound 0.316 µM): 0.0106 µM | IC50 (second compound 1 µM): < 0.000316 µM | viability, T/C (second compound 0.00316 µM, first compound 0.000316 µM): 110% | viability, T/C (second compound 0.00316 µM, first compound 0.001 µM): 88.9% | viability, T/C (second compound 0.00316 µM, first compound 0.00316 µM): 109% | viability, T/C (second compound 0.00316 µM, first compound 0.01 µM): 84.1% | viability, T/C (second compound 0.00316 µM, first compound 0.0316 µM): 97.6% | viability, T/C (second compound 0.00316 µM, first compound 0.1 µM): 74.2% | viability, T/C (second compound 0.01 µM, first compound 0.000316 µM): 99% | viability, T/C (second compound 0.01 µM, first compound 0.001 µM): 87% | viability, T/C (second compound 0.01 µM, first compound 0.00316 µM): 98.3% | viability, T/C (second compound 0.01 µM, first compound 0.01 µM): 86% | viability, T/C (second compound 0.01 µM, first compound 0.0316 µM): 98% | viability, T/C (second compound 0.01 µM, first compound 0.1 µM): 75.8% | viability, T/C [25]: 84.1% | viability, T/C [26]: 84% | viability, T/C [1]: 86.3% | viability, T/C [2]: 85.1% | viability, T/C [3]: 83.5% | viability, T/C [4]: 60.8% | viability, T/C [27]: 72.1% | viability, T/C [28]: 78.4% | viability, T/C [5]: 62.1% | viability, T/C [6]: 73.7% | viability, T/C [7]: 72% | viability, T/C [8]: 43.2% | viability, T/C [29]: 54.2% | viability, T/C [30]: 51.3% | viability, T/C [9]: 57.4% | viability, T/C [10]: 47.9% | viability, T/C [11]: 44.4% | viability, T/C [12]: 29.9% | viability, T/C [31]: 37% | viability, T/C [32]: 36% | viability, T/C [13]: 31.9% | viability, T/C [14]: 30.6% | viability, T/C [15]: 31.2% | viability, T/C [16]: 15.4%

CC(=O)c1c(C)c2cnc(Nc3ccc(N4CCNCC4)cn3)nc2n(C2CCCC2)c1=O + Cc1nc(NC(=O)N2CCCC2C(N)=O)sc1-c1ccnc(C(C)(C)C(F)(F)F)c1
IC50 (second compound 0.0316 µM): > 0.1 µM | IC50 (second compound 0.1 µM): > 0.1 µM | IC50 (second compound 0.316 µM): > 0.1 µM | IC50 (second compound 1 µM): 0.0517 µM | IC50 (second compound 3.16 µM): < 0.000316 µM | IC50 (second compound 10 µM): < 0.000316 µM | viability, T/C [25]: 103% | viability, T/C [26]: 94.1% | viability, T/C [1]: 111% | viability, T/C [2]: 112% | viability, T/C [3]: 102% | viability, T/C [4]: 85.3% | viability, T/C [27]: 106% | viability, T/C [28]: 97.8% | viability, T/C [5]: 109% | viability, T/C [6]: 98.3% | viability, T/C [7]: 96.3% | viability, T/C [8]: 76.7% | viability, T/C [29]: 91.7% | viability, T/C [30]: 92.5% | viability, T/C [9]: 97.3% | viability, T/C [10]: 90.7% | viability, T/C [11]: 90.9% | viability, T/C [12]: 58% | viability, T/C [31]: 69.4% | viability, T/C [32]: 78.2% | viability, T/C [13]: 72.8% | viability, T/C [14]: 75.5% | viability, T/C [15]: 60.5% | viability, T/C [16]: 33% | viability, T/C (second compound 3.16 µM, first compound 0.000316 µM): 44.1% | viability, T/C (second compound 3.16 µM, first compound 0.001 µM): 46.9% | viability, T/C [17]: 42.7% | viability, T/C [18]: 41.3% | viability, T/C [19]: 34.5% | viability, T/C [20]: 18.2% | viability, T/C (second compound 10 µM, first compound 0.000316 µM): 25.3% | viability, T/C (second compound 10 µM, first compound 0.001 µM): 24% | viability, T/C [21]: 24.1% | viability, T/C [22]: 23% | viability, T/C [23]: 19.3% | viability, T/C [24]: 10.7%
